# Test results reported in patent US20080051387A1, “TETRAHYDROPYRIDO[3,4-D]PYRIMIDINES AND RELATED ANALOGUES” (priority 2006, published 2008).
# Target: T1, chimeric human H3 receptor (Homo sapiens, UniProt Q9Y5N1)
# T1 construct: rat Galpha-i2 (Gnai2, rat); made in house; host or cells: Sf9 insect cells (baculovirus); P2 membranes
# Test: Chimeric human H3 receptor screening GTP binding assay (inhibition of histamine-stimulated GTP-gamma35S binding, Example 8)
# Assay type: biochemical
# Details: 1 h; assay described in Example 8; symbol "!" in column headed Ki; read-out: Ki ("!": percent inhibition of agonist-induced GTP-gammaS binding to H3)
# Outline: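 Compound tested at 4 μM against 1 μM histamine stimulation; 125 pM GTP-gamma35S binding measured by filtration and scintillation after 60 min at room temperature. Membranes from Sf9 cells expressing chimeric human H3 plus G-protein subunits, in Tris pH 7.4/NaCl/MgCl2/GDP buffer; values are % inhibition after nonspecific subtraction.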
# T1 sequence (Q9Y5N1 with tags, fused parts or gaps): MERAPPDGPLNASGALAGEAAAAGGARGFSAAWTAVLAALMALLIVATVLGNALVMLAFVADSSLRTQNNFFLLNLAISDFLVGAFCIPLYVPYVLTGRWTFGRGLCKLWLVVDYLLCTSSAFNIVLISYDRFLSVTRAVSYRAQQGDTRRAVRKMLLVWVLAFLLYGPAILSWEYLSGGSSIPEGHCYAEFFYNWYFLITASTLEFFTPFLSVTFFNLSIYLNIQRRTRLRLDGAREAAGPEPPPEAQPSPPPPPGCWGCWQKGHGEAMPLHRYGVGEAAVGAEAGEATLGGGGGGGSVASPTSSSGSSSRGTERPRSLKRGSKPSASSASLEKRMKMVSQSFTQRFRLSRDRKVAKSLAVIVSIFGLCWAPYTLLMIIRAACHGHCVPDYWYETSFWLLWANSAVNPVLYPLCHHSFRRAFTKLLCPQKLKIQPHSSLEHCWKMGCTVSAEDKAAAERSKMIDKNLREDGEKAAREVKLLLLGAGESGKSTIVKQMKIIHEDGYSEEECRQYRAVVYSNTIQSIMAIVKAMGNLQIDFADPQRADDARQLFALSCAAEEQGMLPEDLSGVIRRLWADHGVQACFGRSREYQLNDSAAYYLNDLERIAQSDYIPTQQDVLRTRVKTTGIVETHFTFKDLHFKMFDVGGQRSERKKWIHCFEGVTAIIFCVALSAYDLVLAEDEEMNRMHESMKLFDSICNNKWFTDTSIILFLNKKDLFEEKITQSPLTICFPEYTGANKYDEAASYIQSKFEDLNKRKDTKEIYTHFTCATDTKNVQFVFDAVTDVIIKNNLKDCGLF
row,Compound,inhibition at 4 µM [%]
1,"O=C(c1cc(C(F)(F)F)cc(C(F)(F)F)c1)N1CCc2cnc(N3CCN(C4CCC4)CC3)nc2CC1 [Compound 402, 7-[3,5-bis(trifluoromethyl)benzoyl]-2-(4-cyclobutylpiperazin-1-yl)-6,7,8,9-tetrahydro-5H-pyrimido[4,5-d]azepine]",≥ 90
2,"Cc1cccc(C(=O)N2CCc3cnc(N4CCN(C5CCC5)CC4)nc3CC2)c1C [Compound 403, 2-(4-cyclobutylpiperazin-1-yl)-7-(2,3-dimethylbenzoyl)-6,7,8,9-tetrahydro-5H-pyrimido[4,5-d]azepine]",≥ 90
3,"O=C(c1cccc2ccccc12)N1CCc2cnc(N3CCN(C4CCC4)CC3)nc2CC1 [Compound 404, 2-(4-cyclobutylpiperazin-1-yl)-7-(1-naphthoyl)-6,7,8,9-tetrahydro-5H-pyrimido[4,5-d]azepine]",≥ 90
4,"Cc1cc(C)c(C(=O)N2CCc3cnc(N4CCN(C5CCC5)CC4)nc3CC2)c(C)c1 [Compound 405, 2-(4-cyclobutylpiperazin-1-yl)-7-(mesitylcarbonyl)-6,7,8,9-tetrahydro-5H-pyrimido[4,5-d]azepine]",≥ 90
5,"Cc1ccc(C(=O)N2CCc3cnc(N4CCN(C5CCC5)CC4)nc3CC2)c(C)c1 [Compound 407, 2-(4-cyclobutylpiperazin-1-yl)-7-(2,4-dimethylbenzoyl)-6,7,8,9-tetrahydro-5H-pyrimido[4,5-d]azepine]",≥ 90
6,"CSc1ccccc1C(=O)N1CCc2cnc(N3CCN(C4CCC4)CC3)nc2CC1 [Compound 408, 2-(4-cyclobutylpiperazin-1-yl)-7-[2-(methylthio)benzoyl]-6,7,8,9-tetrahydro-5H-pyrimido[4,5-d]azepine]",≥ 90
7,"O=C(c1ccccc1-c1ccccc1)N1CCc2cnc(N3CCN(C4CCC4)CC3)nc2CC1 [Compound 409, 7-(biphenyl-2-ylcarbonyl)-2-(4-cyclobutylpiperazin-1-yl)-6,7,8,9-tetrahydro-5H-pyrimido[4,5-d]azepine]",≥ 90
8,"O=C(c1ccccc1Cc1ccccc1)N1CCc2cnc(N3CCN(C4CCC4)CC3)nc2CC1 [Compound 410, 7-(2-benzylbenzoyl)-2-(4-cyclobutylpiperazin-1-yl)-6,7,8,9-tetrahydro-5H-pyrimido[4,5-d]azepine]",≥ 90
9,"O=C(c1ccccc1CCc1ccccc1)N1CCc2cnc(N3CCN(C4CCC4)CC3)nc2CC1 [Compound 411, 2-(4-cyclobutylpiperazin-1-yl)-7-[2-(2-phenylethyl)benzoyl]-6,7,8,9-tetrahydro-5H-pyrimido[4,5-d]azepine]",≥ 90
10,"O=C(c1ccccc1OC(F)(F)F)N1CCc2cnc(N3CCN(C4CCC4)CC3)nc2CC1 [Compound 412, 2-(4-cyclobutylpiperazin-1-yl)-7-[2-(trifluoromethoxy)benzoyl]-6,7,8,9-tetrahydro-5H-pyrimido[4,5-d]azepine]",≥ 90
11,"CCOc1ccccc1C(=O)N1CCc2cnc(N3CCN(C4CCC4)CC3)nc2CC1 [Compound 415, 2-(4-cyclobutylpiperazin-1-yl)-7-(2-ethoxybenzoyl)-6,7,8,9-tetrahydro-5H-pyrimido[4,5-d]azepine]",≥ 90
12,"CCCOc1ccccc1C(=O)N1CCc2cnc(N3CCN(C4CCC4)CC3)nc2CC1 [Compound 416, 2-(4-cyclobutylpiperazin-1-yl)-7-(2-propoxybenzoyl)-6,7,8,9-tetrahydro-5H-pyrimido[4,5-d]azepine]",≥ 90
13,"CCCCOc1ccccc1C(=O)N1CCc2cnc(N3CCN(C4CCC4)CC3)nc2CC1 [Compound 417, 7-(2-butoxybenzoyl)-2-(4-cyclobutylpiperazin-1-yl)-6,7,8,9-tetrahydro-5H-pyrimido[4,5-d]azepine]",≥ 90
14,"Cc1ccc(Oc2ccccc2C(=O)N2CCc3cnc(N4CCN(C5CCC5)CC4)nc3CC2)cc1 [Compound 418, 2-(4-cyclobutylpiperazin-1-yl)-7-[2-(4-methylphenoxy)benzoyl]-6,7,8,9-tetrahydro-5H-pyrimido[4,5-d]azepine]",≥ 90
15,"O=C(c1ccccc1Oc1ccc(Cl)cc1)N1CCc2cnc(N3CCN(C4CCC4)CC3)nc2CC1 [Compound 419, 7-[2-(4-chlorophenoxy)benzoyl]-2-(4-cyclobutylpiperazin-1-yl)-6,7,8,9-tetrahydro-5H-pyrimido[4,5-d]azepine]",≥ 90
16,"O=C(c1ccccc1Oc1ccccc1)N1CCc2cnc(N3CCN(C4CCC4)CC3)nc2CC1 [Compound 422, 2-(4-cyclobutylpiperazin-1-yl)-7-(2-phenoxybenzoyl)-6,7,8,9-tetrahydro-5H-pyrimido[4,5-d]azepine]",≥ 90
17,"O=C(c1c(F)cccc1C(F)(F)F)N1CCc2cnc(N3CCN(C4CCC4)CC3)nc2CC1 [Compound 434, 2-(4-cyclobutylpiperazin-1-yl)-7-[2-fluoro-6-(trifluoromethyl)benzoyl]-6,7,8,9-tetrahydro-5H-pyrimido[4,5-d]azepine]",≥ 90

# Other lines, results leading:
row,inhibition at 4 µM [%],Compound
1,≥ 90,"Cc1cccc(C)c1C(=O)N1CCc2cnc(N3CCN(C4CCC4)CC3)nc2CC1 [Compound 406, 2-(4-cyclobutylpiperazin-1-yl)-7-(2,6-dimethylbenzoyl)-6,7,8,9-tetrahydro-5H-pyrimido[4,5-d]azepine]"
2,≥ 90,"COc1ccc(Br)c(C(=O)N2CCc3cnc(N4CCN(C5CCC5)CC4)nc3CC2)c1 [Compound 413, 7-(2-bromo-5-methoxybenzoyl)-2-(4-cyclobutylpiperazin-1-yl)-6,7,8,9-tetrahydro-5H-pyrimido[4,5-d]azepine]"
3,≥ 90,"COc1ccc(Br)c(OC)c1C(=O)N1CCc2cnc(N3CCN(C4CCC4)CC3)nc2CC1 [Compound 414, 7-(3-bromo-2,6-dimethoxybenzoyl)-2-(4-cyclobutylpiperazin-1-yl)-6,7,8,9-tetrahydro-5H-pyrimido[4,5-d]azepine]"
4,≥ 90,"COc1ccc(Cl)cc1C(=O)N1CCc2cnc(N3CCN(C4CCC4)CC3)nc2CC1 [Compound 420, 7-(5-chloro-2-methoxybenzoyl)-2-(4-cyclobutylpiperazin-1-yl)-6,7,8,9-tetrahydro-5H-pyrimido[4,5-d]azepine]"
5,≥ 90,"COc1cc(Cl)ccc1C(=O)N1CCc2cnc(N3CCN(C4CCC4)CC3)nc2CC1 [Compound 421, 7-(4-chloro-2-methoxybenzoyl)-2-(4-cyclobutylpiperazin-1-yl)-6,7,8,9-tetrahydro-5H-pyrimido[4,5-d]azepine]"
6,≥ 90,"COc1ccc(OC)c(C(=O)N2CCc3cnc(N4CCN(C5CCC5)CC4)nc3CC2)c1 [Compound 423, 2-(4-cyclobutylpiperazin-1-yl)-7-(2,5-dimethoxybenzoyl)-6,7,8,9-tetrahydro-5H-pyrimido[4,5-d]azepine]"
7,≥ 90,"COc1cccc(OC)c1C(=O)N1CCc2cnc(N3CCN(C4CCC4)CC3)nc2CC1 [Compound 424, 2-(4-cyclobutylpiperazin-1-yl)-7-(2,6-dimethoxybenzoyl)-6,7,8,9-tetrahydro-5H-pyrimido[4,5-d]azepine]"
8,≥ 90,"COc1ccc(C(=O)N2CCc3cnc(N4CCN(C5CCC5)CC4)nc3CC2)c(Cl)c1OC [Compound 425, 7-(2-chloro-3,4-dimethoxybenzoyl)-2-(4-cyclobutylpiperazin-1-yl)-6,7,8,9-tetrahydro-5H-pyrimido[4,5-d]azepine]"
9,≥ 90,"COc1ccc(Cl)c(OC)c1C(=O)N1CCc2cnc(N3CCN(C4CCC4)CC3)nc2CC1 [Compound 426, 7-(3-chloro-2,6-dimethoxybenzoyl)-2-(4-cyclobutylpiperazin-1-yl)-6,7,8,9-tetrahydro-5H-pyrimido[4,5-d]azepine]"
10,≥ 90,"COc1c(Cl)cc(Cl)c(OC)c1C(=O)N1CCc2cnc(N3CCN(C4CCC4)CC3)nc2CC1 [Compound 427, 2-(4-cyclobutylpiperazin-1-yl)-7-(3,5-dichloro-2,6-dimethoxybenzoyl)-6,7,8,9-tetrahydro-5H-pyrimido[4,5-d]azepine]"
11,≥ 90,"COc1cc(Cl)c(C(=O)N2CCc3cnc(N4CCN(C5CCC5)CC4)nc3CC2)cc1OC [Compound 428, 7-(2-chloro-4,5-dimethoxybenzoyl)-2-(4-cyclobutylpiperazin-1-yl)-6,7,8,9-tetrahydro-5H-pyrimido[4,5-d]azepine]"
12,≥ 90,"COc1cc(Br)c(C(=O)N2CCc3cnc(N4CCN(C5CCC5)CC4)nc3CC2)cc1OC [Compound 429, 7-(2-bromo-4,5-dimethoxybenzoyl)-2-(4-cyclobutylpiperazin-1-yl)-6,7,8,9-tetrahydro-5H-pyrimido[4,5-d]azepine]"
13,≥ 90,"COc1cccc(C(=O)N2CCc3cnc(N4CCN(C5CCC5)CC4)nc3CC2)c1OC [Compound 430, 2-(4-cyclobutylpiperazin-1-yl)-7-(2,3-dimethoxybenzoyl)-6,7,8,9-tetrahydro-5H-pyrimido[4,5-d]azepine]"
14,≥ 90,"COc1ccc(C(=O)N2CCc3cnc(N4CCN(C5CCC5)CC4)nc3CC2)c(OC)c1 [Compound 431, 2-(4-cyclobutylpiperazin-1-yl)-7-(2,4-dimethoxybenzoyl)-6,7,8,9-tetrahydro-5H-pyrimido[4,5-d]azepine]"
15,≥ 90,"COc1ccc(C(=O)N2CCc3cnc(N4CCN(C5CCC5)CC4)nc3CC2)c(OC)c1OC [Compound 432, 2-(4-cyclobutylpiperazin-1-yl)-7-(2,3,4-trimethoxybenzoyl)-6,7,8,9-tetrahydro-5H-pyrimido[4,5-d]azepine]"
16,≥ 90,"O=C(c1c(F)cccc1Cl)N1CCc2cnc(N3CCN(C4CCC4)CC3)nc2CC1 [Compound 433, 7-(2-chloro-6-fluorobenzoyl)-2-(4-cyclobutylpiperazin-1-yl)-6,7,8,9-tetrahydro-5H-pyrimido[4,5-d]azepine]"
